From ChEMBL document CHEMBL3045530, “Synthesis, antimycobacterial, antiviral, antimicrobial activities, and QSAR studies of isonicotinic acid-1-(substituted phenyl)-ethylidene/cycloheptylidene hydrazides” (Med Chem Res, 2012)
Values after ≈ are worked out from the molar mass of the structure shown.

Experiments:
[1] = tested on: Human herpesvirus 3 strain Oka vaccine; assay: Antiviral activity against Human herpesvirus 3 strain Oka vaccine OKA 07-1 (Varicella zoster virus ) infected in human HEL cells assessed as inhibition of virus-induced cytopathicity; type: functional, organism-based; settings: Human alphaherpesvirus 3, HEL
[2] = Cytotoxicity against Homo sapiens (human) MT4 cells after 4 days by MTT assay; type: cell-based
Aspergillus niger = assay: Antimicrobial activity against Aspergillus niger after 7 days by tube dilution method; type: functional
[3] = tested on: Mammalian orthoreovirus 1; assay: Antiviral activity against Mammalian orthoreovirus 1 infected Vero cells assessed as inhibition of virus-induced cytopathicity by microscopy; type: functional, organism-based; settings: Mammalian orthoreovirus 1, Vero
[4] = Cytotoxicity against Homo sapiens (human) HeLa cells assessed as alteration in cell morphology by microscopy; type: cell-based; settings: read-out: MTC
Candida albicans = assay: Antimicrobial activity against Candida albicans after 48 hr by tube dilution method; type: functional
[5] = tested on: Human immunodeficiency virus 2; assay: Antiviral activity against Human immunodeficiency virus type 2 (ISOLATE ROD) infected MT4 cells assessed as inhibition of virus-induced cytopathic effect after 4 days by MTT assay; type: functional, organism-based; settings: Human immunodeficiency virus 2, ISOLATE ROD, MT4, 96 h
Sindbis virus = assay: Antiviral activity against Sindbis virus infected Vero cells assessed as inhibition of virus-induced cytopathicity; type: functional, organism-based
Human alphaherpesvirus 1 [6] = assay: Antiviral activity against TK(-) aciclovir-resistant Human herpesvirus 1 strain KOS infected in human HEL cells assessed as inhibition of virus-induced cytopathicity; type: functional, organism-based; settings: Human alphaherpesvirus 1, KOS
HEL = assay: Cytostatic against Homo sapiens (human) HEL cells assessed as alteration in cell morphology by microscopy; type: ADME, cell-based
Vaccinia virus = assay: Antiviral activity against Vaccinia virus infected human HEL cells assessed as inhibition of virus-induced cytopathicity by microscopy; type: functional, organism-based; settings: Orthopoxvirus vaccinia
[7] = tested on: Human immunodeficiency virus 1; assay: Antiviral activity against Human immunodeficiency virus 1 IIIB infected MT4 cells assessed as inhibition of virus-induced cytopathic effect after 4 days by MTT assay; type: functional, organism-based; settings: MT4, 96 h
Human alphaherpesvirus 2 = assay: Antiviral activity against Human herpesvirus 2 strain G infected human HEL cells assessed as inhibition of virus-induced cytopathicity by microscopy; type: functional, organism-based; settings: Human alphaherpesvirus 2, strain G
Coxsackievirus B4 [8] = assay: Antiviral activity against Human coxsackievirus B4 infected Vero cells assessed as inhibition of virus-induced cytopathicity; type: functional, organism-based; settings: Enterovirus B
Staphylococcus aureus = assay: Antimicrobial activity against Staphylococcus aureus after 24 hr by tube dilution method; type: functional
Bacillus subtilis = assay: Antimicrobial activity against Bacillus subtilis after 24 hr by tube dilution method; type: functional
[9] = tested on: Respiratory syncytial virus; assay: Antiviral activity against Respiratory syncytial virus infected human HeLa cells assessed as inhibition of virus-induced cytopathicity by microscopy; type: functional, organism-based
Coxsackievirus B4 [10] = assay: Antiviral activity against Human coxsackievirus B4 infected human HeLa cells assessed as inhibition of virus-induced cytopathicity by microscopy; type: functional, organism-based; settings: Enterovirus B
[11] = Cytotoxicity against Chlorocebus aethiops (African green monkey) Vero cells assessed as alteration in cell morphology by microscopy; type: cell-based; settings: chlorocebus sabaeus, read-out: MTC
Human alphaherpesvirus 1 [12] = assay: Antiviral activity against Human herpesvirus 1 strain KOS infected human HEL cells assessed as inhibition of virus-induced cytopathicity by microscopy by microscopy; type: functional, organism-based; settings: Human alphaherpesvirus 1, KOS
[13] = tested on: Human herpesvirus 5 strain AD169; assay: Antiviral activity against Human herpesvirus 5 strain AD169 Davis infected human HEL cells assessed as inhibition of virus-induced cytopathicity by microscopy; type: functional, organism-based; settings: Human betaherpesvirus 5, Davis
[14] = tested on: Vesicular stomatitis virus; assay: Antiviral activity against Vesicular stomatitis virus infected human HeLa cells assessed as inhibition of virus-induced cytopathicity by microscopy; type: functional, organism-based
Punta Toro virus = assay: Antiviral activity against Punta Toro virus infected Vero cells assessed as inhibition of virus-induced cytopathicity; type: functional, organism-based
Escherichia coli = assay: Antimicrobial activity against Escherichia coli after 24 hr by tube dilution method; type: functional
[15] = Cytotoxicity against Homo sapiens (human) HEL cells assessed as alteration in cell morphology by microscopy; type: cell-based; settings: for MCC: read-out: MTC
Human respirovirus 3 = assay: Antiviral activity against Human parainfluenza virus 3 infected Vero cells assessed as inhibition of virus-induced cytopathicity by microscopy; type: functional, organism-based; settings: Human respirovirus 3, Vero

SMILES | EC50 [1] | CC50 at 96 h [2] | -logMIC (Aspergillus niger) | EC50 [3] | MCC [4] | -logMIC (Candida albicans) | EC50 [5] | EC50 (Sindbis virus) | EC50 (Human alphaherpesvirus 1 [6]) | Activity (HEL) | EC50 (Vaccinia virus) | EC50 [7] | EC50 (Human alphaherpesvirus 2) | EC50 (Coxsackievirus B4 [8]) | -logMIC (Staphylococcus aureus) | -logMIC (Bacillus subtilis) | EC50 [9] | EC50 (Coxsackievirus B4 [10]) | MCC [11] | EC50 (Human alphaherpesvirus 1 [12]) | also measured
C/C(=N\NC(=O)c1ccncc1)c1ccc(O)cc1O | 8 µg/mL (≈ 29.5 µM) | 9.7 µg/mL (≈ 35.8 µM) | 2.34 | > 4 µg/mL | 4 µg/mL | 2.64 | > 9.7 µg/mL | > 4 µg/mL | 2 µg/mL (≈ 7.37 µM) | Toxic | 2.5 µg/mL (≈ 9.22 µM) | > 9.7 µg/mL | 2 µg/mL (≈ 7.37 µM) | > 4 µg/mL | 2.04 | 2.04 | > 0.8 µg/mL | > 0.8 µg/mL | 20 µg/mL | 2.5 µg/mL (≈ 9.22 µM) | EC50 [13]: > 4 µg/mL; EC50 [14]: > 0.8 µg/mL; EC50 (Punta Toro virus): > 4 µg/mL; -logMIC (Escherichia coli): 2.04; CC50 [15]: 2.1 µg/mL (≈ 7.74 µM); MCC [15]: > 100 µg/mL; EC50 (Human respirovirus 3): > 4 µg/mL
C/C(=N\NC(=O)c1ccncc1)c1cccc([N+](=O)[O-])c1 | > 4 µg/mL | 63 µg/mL (≈ 222 µM) | 2.36 | > 4 µg/mL | 20 µg/mL | 2.36 | > 63 µg/mL | > 4 µg/mL | > 20 µg/mL | Toxic | > 20 µg/mL | > 63 µg/mL | > 20 µg/mL | > 4 µg/mL | 2.06 | 2.06 | > 4 µg/mL | > 4 µg/mL | 20 µg/mL | > 20 µg/mL | EC50 [13]: > 20 µg/mL; EC50 [14]: > 4 µg/mL; EC50 (Punta Toro virus): > 4 µg/mL; -logMIC (Escherichia coli): 2.36; CC50 [15]: 13 µg/mL (≈ 45.7 µM); MCC [15]: 100 µg/mL; EC50 (Human respirovirus 3): > 4 µg/mL
